Tests used:
Format in all cases: in vivo
[1] = system: barnyardgrass (Echinochloa crus-galli); assay: Test A greenhouse herbicide test, pre- and postemergence
Excerpt: (§1) Seeds of plant species selected from barnyardgrass (Echinochloa crus-galli), kochia (Kochia scoparia), ragweed (common ragweed, Ambrosia elatior), ryegrass, Italian (Italian ryegrass, Lolium multiflorum), crabgrass, large (large crabgrass, Digitaria sanguinalis), foxtail, giant (giant foxtail, Setaria faberii), momingglory (Ipomoea spp.), pigweed (Amaranthus retroflexus), velvetleaf (Abutilon theophrasti), wheat (Triticum aestivum), and corn (Zea mays) were planted into a blend of loam soil and sand and treated preemergence with a directed soil spray using test chemicals formulated in a non-phytotoxic solvent mixture which included a surfactant.
(§2) At the same time, plants selected from these crop and weed species and also blackgrass (Alopecurus myosuroides), and galium (catchweed bedstraw, Galium aparine) were planted in pots containing the same blend of loam soil and sand and treated with postemergence applications of test chemicals formulated in the same manner. Plants ranged in height from 2 to 10 cm and were in the one- to two-leaf stage for the postemergence treatment. Treated plants and untreated controls were maintained in a greenhouse for approximately 10 d, after which time all treated plants were compared to untreated controls and visually evaluated for injury. Plant response ratings, summarized in Table A, are based on a 0 to 100 scale where 0 is no effect and 100 is complete control. A dash (-) response means no test result.

corn (Zea mays) = assay: as above; settings: Postemergence; for Corn plant response rating: 0 to 100 scale, 0 is no effect, 100 is complete control
Excerpt: as §1, §2

[2] = system: foxtail, giant (giant foxtail, Setaria faberii); assay: as above
Excerpt: as §1, §2

kochia (Kochia scoparia) = assay: as above
Excerpt: as §1, §2

[3] = system: pigweed (Amaranthus retroflexus); assay: as above
Excerpt: as §1, §2

[4] = system: ragweed (common ragweed, Ambrosia elatior); assay: as above
Excerpt: as §1, §2

[5] = system: ryegrass, Italian (Italian ryegrass, Lolium multiflorum); assay: as above
Excerpt: as §1, §2

[6] = system: wheat (Triticum aestivum); assay: as above; settings: Postemergence; for Wheat plant response rating: 0 to 100 scale, 0 is no effect, 100 is complete control
Excerpt: as §1, §2

[7] = system: blackgrass (Alopecurus myosuroides); assay: Test A greenhouse herbicide test, postemergence; settings: for Blackgrass plant response rating: 0 to 100 scale, 0 is no effect, 100 is complete control
How it was run: (§3)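 Visual injury score, 0 (no effect) to 100 (complete control), versus untreated controls roughly 10 d after postemergence spray; plants at one- to two-leaf stage, 2 to 10 cm tall, in loam soil and sand, kept in greenhouse.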

[8] = system: galium (catchweed bedstraw, Galium aparine); assay: Test A greenhouse herbicide test, postemergence; settings: for Galium plant response rating: 0 to 100 scale, 0 is no effect, 100 is complete control
How it was run: as §3

[9] = system: barnyardgrass (Echinochloa crus-galli); assay: Test B flooded paddy test; settings: 250 g ai/ha, Flood; visual rating on scale of 0 to 100 where 0 is no effect and 100 is complete control; 13 to 15 d after treatment
How it was run: (§4)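 Plants grown to the 2-leaf stage. At treatment, pots were flooded to 3 cm above the soil, compound was applied directly to the paddy water, and that depth was held throughout. After 13 to 15 d in the greenhouse, response was rated visually against controls on a 0 (no effect) to 100 (complete control) scale.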

[10] = system: ducksalad (Heteranthera limosa); assay: Test B flooded paddy test; settings: 250 g ai/ha, Flood; visual rating on scale of 0 to 100 where 0 is no effect and 100 is complete control; 13 to 15 d after treatment
How it was run: as §4

rice (Oryza sativa) = assay: Test B flooded paddy test; settings: 250 g ai/ha, Flood; visual rating on scale of 0 to 100 where 0 is no effect and 100 is complete control; 13 to 15 d after treatment
How it was run: as §4

[11] = system: sedge, umbrella (small-flower umbrella sedge, Cyperus difformis); assay: Test B flooded paddy test; settings: 250 g ai/ha, Flood; visual rating on scale of 0 to 100 where 0 is no effect and 100 is complete control; 13 to 15 d after treatment
How it was run: as §4

[12] = Postemergence, 125 g ai/ha, 0 to 100 scale where 0 is no effect and 100 is complete control
[13] = Postemergence, 500 g ai/ha, 0 to 100 scale, 0 is no effect, 100 is complete control
[14] = Preemergence, 125 g ai/ha, 0 to 100 scale where 0 is no effect and 100 is complete control
[15] = Preemergence, 500 g ai/ha, 0 to 100 scale where 0 is no effect and 100 is complete control
[16] = 125 g ai/ha, 0 to 100 scale where 0 is no effect and 100 is complete control
[17] = Postemergence, 500 g ai/ha, visual rating after approx. 10 d, 0 to 100 scale (0 no effect, 100 complete control)
[18] = 500 g ai/ha, visual rating after approx. 10 d, 0 to 100 scale (0 no effect, 100 complete control)

SMILES | Plant response rating, Barnyardgrass [1, 12] | Barnyardgrass plant response rating [1, 14] | Plant response rating, Barnyardgrass [1, 15] | Plant response rating, Corn (corn (Zea mays); [16]) | Plant response rating, Foxtail, Giant [2, 12] | Foxtail, Giant plant response rating [2, 14] | Plant response rating, Foxtail, Giant [2, 15] | Plant response rating, Kochia (kochia (Kochia scoparia); [12]) | Kochia plant response rating (kochia (Kochia scoparia); [14]) | Plant response rating, Kochia (kochia (Kochia scoparia); [15]) | Plant response rating, Pigweed [3, 12] | Pigweed plant response rating [3, 14] | Plant response rating, Pigweed [3, 15] | Plant response rating, Ragweed [4, 12] | Ragweed plant response rating [4, 14] | Plant response rating, Ragweed [4, 15] | Plant response rating, Ryegrass, Italian [5, 12] | Ryegrass, Italian plant response rating [5, 14] | Plant response rating, Ryegrass, Italian [5, 15] | Plant response rating, Wheat [6, 16] | further results
COc1nn(C)c(=O)c(-c2c(C(F)F)ccc3ccccc23)c1O [Compound 86] | 30 | 0 | 40 | 0 | 50 | 20 | 70 | 70 | 0 | 40 | 90 | 80 | 100 | 80 | 40 | 90 | 0 | 0 | 40 | 0 | Barnyardgrass plant response rating [1, 13]: 10; Corn plant response rating (corn (Zea mays); 500 g ai/ha): 0; Foxtail, Giant plant response rating [2, 13]: 70; Kochia plant response rating (kochia (Kochia scoparia); [13]): 80; Pigweed plant response rating [3, 13]: 90; Ragweed plant response rating [4, 13]: 80; Ryegrass, Italian plant response rating [5, 13]: 50; Wheat plant response rating ([6]; 500 g ai/ha): 0; Plant response rating, Blackgrass [7, 16]: 10; Blackgrass plant response rating ([7]; 500 g ai/ha): 30; Plant response rating, Galium [8, 16]: 90; Galium plant response rating ([8]; 500 g ai/ha): 100; Plant response rating, Barnyardgrass [9]: 0; Plant response rating, Ducksalad [10]: 20; Plant response rating, Rice (rice (Oryza sativa)): 15; Plant response rating, Sedge, Umbrella [11]: 60
CCOc1ccc2cccc(-c3c(O)c(C)nn(C)c3=O)c2c1 [Compound 92] | 0 | 0 | 0 | 0 | 0 | 0 | 0 | 60 | 0 | 20 | 20 | 0 | 0 | 0 | 0 | 0 | 0 | 0 | 0 | 0 | Barnyardgrass plant response rating [1, 13]: 0; Corn plant response rating (corn (Zea mays); 500 g ai/ha): 0; Foxtail, Giant plant response rating [2, 13]: 0; Kochia plant response rating (kochia (Kochia scoparia); [13]): 70; Pigweed plant response rating [3, 13]: 30; Ragweed plant response rating [4, 13]: 0; Ryegrass, Italian plant response rating [5, 13]: 0; Wheat plant response rating ([6]; 500 g ai/ha): 0; Plant response rating, Blackgrass [7, 16]: 0; Blackgrass plant response rating ([7]; 500 g ai/ha): 20; Plant response rating, Galium [8, 16]: 10; Galium plant response rating ([8]; 500 g ai/ha): 30; Plant response rating, Barnyardgrass [9]: 0; Plant response rating, Ducksalad [10]: 0; Plant response rating, Rice (rice (Oryza sativa)): 0; Plant response rating, Sedge, Umbrella [11]: 40
Cc1nn(C)c(=O)c(-c2cccc3ccc(OC(F)F)cc23)c1O [Compound 93] | 0 | 0 | 0 | 0 | 0 | 0 | 0 | 20 | 0 | 30 | 30 | 20 | 90 | 0 | 0 | 20 | 40 | 20 | 40 | 0 | Barnyardgrass plant response rating [1, 13]: 20; Corn plant response rating (corn (Zea mays); 500 g ai/ha): 30; Foxtail, Giant plant response rating [2, 13]: 10; Kochia plant response rating (kochia (Kochia scoparia); [13]): 30; Pigweed plant response rating [3, 13]: 60; Ragweed plant response rating [4, 13]: 50; Ryegrass, Italian plant response rating [5, 13]: 90; Wheat plant response rating ([6]; 500 g ai/ha): 20; Plant response rating, Blackgrass [7, 16]: 0; Blackgrass plant response rating ([7]; 500 g ai/ha): 0; Plant response rating, Galium [8, 16]: 70; Galium plant response rating ([8]; 500 g ai/ha): 90; Plant response rating, Barnyardgrass [9]: 0; Plant response rating, Ducksalad [10]: 0; Plant response rating, Rice (rice (Oryza sativa)): 0; Plant response rating, Sedge, Umbrella [11]: 50
Cc1ccc2c(-c3c(O)c(C)nn(C)c3=O)c(C)ccc2c1 [Compound 110] | 0 | 0 | 20 | 0 | 0 | 10 | 40 | 50 | 0 | 100 | 70 | 90 | 100 | 60 | 30 | 40 | 70 | 20 | 80 | 0 | Plant response rating, Barnyardgrass [1, 17]: 10; Plant response rating, Corn (corn (Zea mays); [18]): 20; Plant response rating, Foxtail, Giant [2, 17]: 10; Plant response rating, Kochia (kochia (Kochia scoparia); [17]): 70; Plant response rating, Pigweed [3, 17]: 90; Plant response rating, Ragweed [4, 17]: 100; Plant response rating, Ryegrass, Italian [5, 17]: 90; Plant response rating, Wheat [6, 18]: 40; Plant response rating, Blackgrass [7, 16]: 20; Plant response rating, Blackgrass [7, 18]: 60; Plant response rating, Galium [8, 16]: 70; Plant response rating, Galium [8, 18]: 90; Plant response rating, Barnyardgrass [9]: 0; Plant response rating, Ducksalad [10]: 0; Plant response rating, Rice (rice (Oryza sativa)): 0; Plant response rating, Sedge, Umbrella [11]: 0
COC(=O)Oc1c(OC)nn(C)c(=O)c1-c1c(C)sc2ccc(Cl)cc12 [Compound 112] | 20 | 10 | 20 | 0 | 20 | 50 | 60 | 20 | 20 | 80 | 20 | 90 | 100 | 60 | 40 | 80 | 80 | 90 | 100 | 20 | Plant response rating, Barnyardgrass [1, 17]: 20; Plant response rating, Corn (corn (Zea mays); [18]): 30; Plant response rating, Foxtail, Giant [2, 17]: 50; Plant response rating, Kochia (kochia (Kochia scoparia); [17]): 30; Plant response rating, Pigweed [3, 17]: 30; Plant response rating, Ragweed [4, 17]: 80; Plant response rating, Ryegrass, Italian [5, 17]: 100; Plant response rating, Wheat [6, 18]: 30; Plant response rating, Blackgrass [7, 16]: 40; Plant response rating, Blackgrass [7, 18]: 80; Plant response rating, Galium [8, 16]: 70; Plant response rating, Galium [8, 18]: 90; Plant response rating, Barnyardgrass [9]: 0; Plant response rating, Ducksalad [10]: 0; Plant response rating, Rice (rice (Oryza sativa)): 0; Plant response rating, Sedge, Umbrella [11]: 0
